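How tested: cells in 96-well plates exposed to compound for 48 hours at five concentrations. GI50 = concentration required for 50% inhibition of growth.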 The source made the active and inactive calls. Cut-off read from the data, not from the text of the source: active = GI50 up to about 1.1 µM and inactive = higher.
Tests used:
Test in all cases: DTP human tumour cell line panel, 48 h
[1] = system: IGROV-1
[2] = system: NCI-H460
[3] = system: RPMI-8226
[4] = system: MOLT-4
[5] = system: SW-620
[6] = system: SK-MEL-5
[7] = system: ACHN
[8] = system: SK-MEL-28
[9] = system: MCF7
[10] = system: K562
[11] = system: MDA-MB-435
[12] = system: HOP-62
[13] = system: OVCAR-8
[14] = system: MDA-MB-231
[15] = system: CAKI-1
[16] = system: SF-295
[17] = system: HCT-15
[18] = system: 786-0
[19] = system: CCRF-CEM
[20] = system: A498
[21] = system: HCT-116
[22] = system: SN12C
[23] = system: COLO 205
[24] = system: UO-31
[25] = system: Hs-578T
[26] = system: SF-539
[27] = system: DU-145
[28] = system: HOP-92
[29] = system: UACC-257
[30] = system: OVCAR-5
[31] = system: PC-3
[32] = system: RXF 393
[33] = system: T47D
[34] = system: LOX IMVI
[35] = system: SNB-75
[36] = system: OVCAR-3
[37] = system: NCI/ADR-RES
[38] = system: SF-268
[39] = system: HCC 2998
[40] = system: HL-60
[41] = system: A549
[42] = system: NCI-H226
[43] = system: SR
[44] = system: NCI-H23
[45] = system: HT-29
[46] = system: OVCAR-4
[47] = system: SK-OV-3
[48] = system: NCI-H522
[49] = system: SNB-19
[50] = system: EKVX
[51] = system: MDA-N
[52] = system: Malme-3M
[53] = system: U-251
[54] = system: UACC-62
[55] = system: SK-MEL-2
[56] = system: KM12
[57] = system: TK-10
[58] = system: M14
[59] = system: BT-549

C=CC1C(OC2OC(CO)C(O)C(O)C2O)OC=C(C(=O)OC)C1CC1CC(=O)CC(CCc2ccc(O)cc2)O1 (centres undefined) was tested, and the GI50 [1] was > 100 µM (inactive), the GI50 [2] was > 100 µM (inactive) and the GI50 [3] was > 100 µM (inactive). The GI50 [4] was > 100 µM (inactive), the GI50 [5] was > 100 µM (inactive) and the GI50 [6] was > 100 µM (inactive). For the same compound, the GI50 [7] was > 100 µM (inactive), the GI50 [8] was > 100 µM (inactive) and the GI50 [9] was > 100 µM (inactive). For the same compound, the GI50 [10] was > 100 µM (inactive), the GI50 [11] was > 100 µM (inactive) and the GI50 [12] was > 100 µM (inactive). The GI50 [13] was > 100 µM (inactive), the GI50 [14] was > 100 µM (inactive) and the GI50 [15] was > 100 µM (inactive). For the same compound, the GI50 [16] was > 100 µM (inactive), the GI50 [17] was over 100 µM and the GI50 [18] was > 100 µM (inactive). For the same compound, the GI50 [19] was > 100 µM (inactive), the GI50 [20] was > 100 µM (inactive) and the GI50 [21] was > 100 µM (inactive). The GI50 [22] was > 100 µM (inactive), the GI50 [23] was > 100 µM (inactive) and the GI50 [24] was > 100 µM (inactive). For the same compound, the GI50 [25] was > 100 µM (inactive), the GI50 [26] was > 100 µM (inactive) and the GI50 [27] was > 100 µM (inactive). The GI50 [28] was > 100 µM (inactive), the GI50 [29] was > 100 µM (inactive) and the GI50 [30] was > 100 µM (inactive). For the same compound, the GI50 [31] was > 100 µM (inactive), the GI50 [32] was > 100 µM (inactive) and the GI50 [33] was > 100 µM (inactive). For the same compound, the GI50 [34] was > 100 µM (inactive), the GI50 [35] was > 100 µM (inactive) and the GI50 [36] was > 100 µM (inactive). For the same compound, the GI50 [37] was > 100 µM (inactive), the GI50 [38] was > 100 µM (inactive) and the GI50 [39] was > 100 µM (inactive). The GI50 [40] was > 100 µM (inactive), the GI50 [41] was > 100 µM (inactive) and the GI50 [42] was > 100 µM (inactive). For the same compound, the GI50 [43] was > 100 µM (inactive), the GI50 [44] was > 100 µM (inactive) and the GI50 [45] was > 100 µM (inactive). For the same compound, the GI50 [46] was > 100 µM (inactive), the GI50 [47] was > 100 µM (inactive) and the GI50 [48] was > 100 µM (inactive). The GI50 [49] was > 100 µM (inactive), the GI50 [50] was > 100 µM (inactive) and the GI50 [51] was > 100 µM (inactive). The GI50 [52] was > 100 µM (inactive), the GI50 [53] was > 100 µM (inactive) and the GI50 [54] was > 100 µM (inactive). For the same compound, the GI50 [55] was > 100 µM (inactive), the GI50 [56] was > 100 µM (inactive) and the GI50 [57] was > 100 µM (inactive). The GI50 [58] was > 100 µM (inactive) and the GI50 [59] was > 100 µM (inactive).

Source: ChEMBL document CHEMBL1201862, “PubChem BioAssay data set” (2004)
